# Residues, ends and D or L forms follow the SMILES beside them. *: point of attachment. Cbz = O=C(OCc1ccccc1)*
# Assays:
# Type in all cases: cell-based
# p-EGFR (Tyr1068) = experiment: Effect of proteasome inhibitor on p-EGFR expression under GST-π knockdown; details: GST-π KD cells, 5 μM MG132 for 2 hours (FIG. 12)
# Protocol: Culturing of M7609 cells and transfection with GST-π siRNA were carried out in accordance with the procedures of Example 1 (1) and (2). On the 2nd day after transfection with GST-π siRNA, the cells were cultured in serum-free medium for 16 hours. After treating with 5 μM MG132 for 2 hours, a cell extract was collected. As a control for the MG132 treatment, treatment with 0.05% DMSO was carried out in the same manner. The cell extract thus obtained was subjected to quantitative protein analysis using a Micro BCA Protein Assay Kit (Scramble siRNA-DMSO treated group: 11.98 μg/μL, Scramble siRNA-MG132 treated group: 12.29 μg/μL, GST-π siRNA-DMSO treated group: 8.91 μg/μL, GST-π siRNA-MG132 treated group: 9.24 μg/μL). After 80 μg of the cell extract was subjected to SDS-PAGE, a western blot analysis was carried out using anti-p-EGFR (Tyr1068) antibody and anti-EGFR antibody.
# p-Raf-1 (Ser338) = experiment: Effect of proteasome inhibitor on Raf-1 expression under GST-π knockdown; details: 5 μM MG132 for 4 hours versus DMSO (FIG. 4)
# Protocol: Culturing of M7609 cells and transfection with GST-π siRNA were carried out in accordance with the procedures of Example 1 (1) and (2). On the 2nd day after GST-π siRNA transfection culturing was carried out for 16 hours in a serum-free medium. After treating with 5 μM MG132 for 4 hours, a cell extract was collected. As a control for the MG132 treatment, treatment with 0.05% DMSO was carried out in the same manner. The cell extract thus obtained was subjected to quantitative protein analysis using a Micro BCA Protein Assay Kit (Scramble siRNA-DMSO treated group: 3.36 μg/μL, Scramble siRNA-MG132 treated group: 3.16 μg/μL, GST-π siRNA-DMSO treated group: 3.12 μg/μL, GST-π siRNA-MG132 treated group: 3.16 μg/μL). 20 μg of the cell extract was subjected to SDS-PAGE, and then western blot analysis was carried out in the same way as for Example 1 (3) using an anti-p-Raf-1 (Ser338) antibody and an anti-Raf-1 antibody.
# GST-π = experiment: Western blot analysis of GST-π knockdown; details: M7609 cells, siRNA transfection, western blot (FIG. 1a)
# Protocol: On the day before transfection, M7609 cells were plated on a 100 mm plastic tissue culture dish using 10% FBS-containing RPMI-1640 medium containing no antibiotic so as to give 1×10^6 cells/10 mL. 600 pmol of GST-π siRNA (SEQ ID No: 1: […], siRNA ID#2385, Ambion) was added to 1 mL of Opti-MEM I Reduced Serum Medium (GIBCO) and mixed gently. Subsequently, 35 μL of Lipofectamine RNAiMAX (Invitrogen) was diluted in 1 mL of Opti-MEM I Reduced Serum Medium and mixed gently. The diluted GST-π siRNA and the diluted Lipofectamine RNAiMAX were combined and gently mixed, and then incubated at room temperature for 10 min. During this time, the medium was replaced with 10 mL of Opti-MEM I Reduced Serum Medium. After the 10 min. incubation, the complex between GST-π siRNA and Lipofectamine RNAiMAX was added to the cells and incubated at 37° C. under an atmosphere containing 5% CO2. After 5 hours incubation, it was replaced with 10 mL of 10% FBS-containing RPMI-1640 medium containing no antibiotic. […] On the 1st, 2nd, 3rd, and 4th days after transfection with GST-π siRNA, the number of cells was counted, and knockdown of GST-π was examined. Knockdown of GST-π was analyzed by a western blot method as described below.
# Western blot analysis of GST-π knockdown was carried out using cells harvested at above-mentioned each point of time after transfection with GST-π siRNA. […] The cell extract thus obtained was subjected to quantitative protein analysis using a Micro BCA Protein Assay Kit (Thermo SCIENTIFIC) (GST-π siRNA transfectant: 4.35 μg/μL, Scramble siRNA transfectant: 4.56 μg/μL). […] A reaction with a chemiluminescent substrate was then carried out at room temperature for 1 min., and then this chemiluminescence was detected using an X-ray film. Washing between operations was carried out three times by shaking for 5 min using PBS-T. Furthermore, after transfection with siRNA, plating on a 60 mm plastic tissue culture dish was carried out to give 1.0×10^5 cells/5 mL, and the total cell count in the dish was measured using a hemocytometer up to the 4th day.
# LC3 = experiment: Autophagy induction by LC3 western blotting; details: M7609 cells, western blot with anti-LC3 antibody (FIG. 8)
# Protocol: Induction of autophagy in GST-π knockdown cells was further analyzed by a western blot analysis of LC3. GST-π knockdown cells obtained by the procedure of Example 1 (2) were plated on a cover slip placed in a 35 mm plastic tissue culture dish so as to give 1×10^5 cells/2 mL. After incubating for a predetermined time, a cell extract was collected and subjected to a western blot analysis. A reaction with a transfer membrane was carried out at 4° C. for 16 hours using anti-LC3B antibody (SIGMA) as a primary antibody. Detection of LC3 molecules was carried out using a chemoluminescent reagent after a reaction with HRP-labeled secondary antibody. Whether or not autophagy was induced was evaluated by a shift of LC3 from type I (18 kDa) to type II (16 kDa).
# M7609 cells [1] = experiment: Autophagy-positive cells in GST-π knockdown cells with autophagy inhibitor (LC3 immunofluorescence); details: GST-π KD M7609 cells + 3-MA (FIG. 16)
# Protocol: (§1) Transfection of GST-π siRNA was carried out in accordance with the procedure of Example 1 (2), the medium was then replaced with an antibiotic-free medium, and incubation was carried out for 3 hours. Cells were plated on a cover slip placed in a 35 mm plastic tissue culture dish, the autophagy inhibitor 3-methyl adenine (3-MA, SIGMA) was added so as to give 1 or 5 mM, and following this culturing was carried out for a predetermined time.
# The cells cultured in (1) were subjected to immunofluorescence staining using anti-LC3 antibody in the same way as for Example 3 (1).
# M7609 cells [2] = experiment: TUNEL staining of GST-π knockdown cells with autophagy inhibitor; details: GST-π siRNA + 1 mM or 5 mM 3-MA
# Protocol: as §1
# The cells cultured in (1) were subjected to TUNEL staining in the same way as for Example 3 (4).
molecule,measurement,setting,value
CC(C)C[C@@H](C=O)NC(=O)[C@H](CC(C)C)NC(=O)[C@H](CC(C)C)NC(=O)OCc1ccccc1 [MG132] (Cbz-Leu-Leu-Leu-aldehyde),expression level of p-EGFR,p-EGFR (Tyr1068),recovered
same,abundance of phosphorylated Raf protein (p-Raf-1 (S338)),p-Raf-1 (Ser338); GST-π siRNA transfectant,increased
same,abundance of phosphorylated Raf protein (p-Raf-1 (S338)),p-Raf-1 (Ser338); Scramble siRNA transfectant,no change
"Scramble siRNA: control Scramble siRNA (SEQ ID No: 2: CGAUUCGCUAGACCGGCUUCAUUGCAG, Hokkaido System Science Co., Ltd.) (chemistry not given here) [reference compound]",expression of GST-π,GST-π,not suppressed
same,expression of type I and type II LC3,LC3,low
"Cn1cnc(N)c2ncnc1-2 [3-MA, 3-methyladenine]",autophagy increased by knockdown of GST-π (proportion of autophagy-positive cells),M7609 cells [1],suppressed
same,apoptosis-positive cells (TUNEL stained images),M7609 cells [2]; 2nd to 4th day (FIG. 17 versus FIG. 9),increased markedly
same,induction of apoptosis (percentage apoptosis over time),M7609 cells [2]; dose-dependent (FIG. 18),further induced

# Source: US20140315975A1, “APOPTOSIS-INDUCING AGENT” (NITTO DENKO CORPORATION, priority 2011, published 2014)
